Reference: PMC6273765, “Synthesis and Biological Evaluation of Novel Aromatic Imide-Polyamine Conjugates” (Molecules, 2016)
Structures can show the parent of a compound that is named as a salt.

Legend:
[1] = tested on: HepG2 cells; assay: MTT cytotoxicity, HepG2; assay type: cell-based, human; conditions: mean of three experiments
[2] = tested on: QSG-7701 cells; assay: MTT cytotoxicity, QSG-7701 normal hepatocyte; assay type: cell-based; conditions: normal hepatocyte cell line
[3] = tested on: HCT-116 cells; assay: MTT cytotoxicity, HCT-116; assay type: cell-based, human; conditions: mean of three experiments
[4] = tested on: K562 cells; assay: MTT cytotoxicity, K562; assay type: cell-based, human; conditions: mean of three experiments
[5] = tested on: MDA-MB-231 cells; assay: MTT cytotoxicity, MDA-MB-231; assay type: cell-based; conditions: Homo sapiens, 48 h, mean of three experiments

Molecule | IC50 ([1]; 48 h) [µM] | IC50 ([2]; 48 h) [µM] | IC50 ([3]; 48 h) [µM] | IC50 ([4]; 48 h) [µM] | IC50 ([1]; Homo sapiens, HepG2, 48 h) [µM] | IC50 ([2]; QSG7701, 48 h) [µM] | IC50 ([3]; Homo sapiens, HCT-116, 48 h) [µM] | IC50 ([4]; Homo sapiens, K562, 48 h) [µM] | IC50 [5] [µM]
2-{3-[4-(3-Aminopropylamino)butylamino]butyl}-6-acetyl-1H-benz[de]isoquinoline-1,3(2H)-dione trihydrochloride [5e] | 22.1 | 27.7 | 16.9 | 12.2 | – | – | – | – | –
CC(=O)c1ccc2c3c(cccc13)C(=O)N(CCCCNCCCCN)C2=O [5d, 2-[(2-Dimethylamino)ethyl-[4-(4-aminobutylamino)butyl]-6-acetyl-1H-benz[de]isoquinoline-1,3(2H)-dione dihydrochloride] | – | – | – | – | 23.9 | 23.2 | 22.9 | 31.1 | –
CC(=O)c1ccc2c3c(cccc13)C(=O)N(CCCCNCCCCNCCCCN)C2=O [5f, 2-{4-[4-(4-Aminobutylamino)butylamino]butyl}-6-acetyl-1H-benz[de]isoquinoline-1,3(2H)-dione trihydrochloride] | – | – | – | – | 30.7 | 21.2 | 19.6 | 18.8 | –
NCCCNCC(=O)NCCCN1C(=O)c2cccc3cccc(c23)C1=O [11a, 2-(3-Aminopropylamino)-N-(3-(1,3-dioxo-1H-benzo[de]isoquinolin-2(3H)-yl)propyl)acetamide dihydrochloride] | – | – | – | – | 53.5 | 39.2 | 39.9 | 33.2 | 32.4
NCCCNCCCNCC(=O)NCCCN1C(=O)c2cccc3cccc(c23)C1=O [11b, 2-(3-(3-Aminopropylamino)propylamino)-N-(3-(1,3-dioxo-1H-benzo[de]isoquinolin-2(3H)-yl)propyl)acetamide trihydrochloride] | – | – | – | – | > 50 | 42.9 | > 50 | 28 | 16.8
